Source: patent US7781436B2 (Hoffmann-La Roche Inc., priority 2005, dated 2010)
pKi: −log10 of the molar value. Like-named read-outs stand apart in the source and are kept apart here.

Biological target: T1, human V1a receptor (Homo sapiens, UniProt P37288)
T1 construct: expressed in transfected cells; host or cells: HEK293 cells, transiently transfected; membranes prepared
Assay: human V1a receptor binding (3H-Vasopressin SPA, membranes of transfected HEK293 cells)
Method: The human V1a receptor was cloned by RT-PCR from total human liver RNA. The coding sequence was subcloned in an expression vector after sequencing to confirm the identity of the amplified sequence. […] Cell membranes were prepared from HEK293 cells transiently transfected with the expression vector and grown in 20 liter fermenters with the following protocol.
50 g of cells are resuspended in 30 ml freshly prepared ice cold Lysis buffer (50 mM HEPES, 1 mM EDTA, 10 mM MgCl2 adjusted to pH=7.4+ complete cocktail of protease inhibitor (Roche Diagnostics)). Homogenized with Polytron for 1 min and sonicated on ice for 2×2 minutes at 80% intensity (Vibracell sonicator). The preparation is centrifuged 20 min at 500 g at 4° C., the pellet is discarded and the supernatant centrifuged 1 hour at 43,000 g at 4° C. (19'000 rpm). The pellet is resuspended in 12.5 ml Lysis buffer+12.5 ml Sucrose 20% and homogenized using a Polytron for 1-2 min. The protein concentration is determined by the Bradford method, and aliquots are stored at −80° C. until use. For binding studies 60 mg Yttrium silicate SPA beads (Amersham) are mixed with an aliquot of membrane in binding buffer (50 mM Tris, 120 mM NaCl, 5 mM KCl, 2 mM CaCl2, 10 mM MgCl2) for 15 minutes with mixing. 50 ul of bead/membrane mixture is then added to each well of a 96 well plate, followed by 50 ul of 4 nM 3H-Vasopressin (American Radiolabeled Chemicals). For total binding measurement 100 ul of binding buffer are added to the respective wells, for non-specific binding 100 ul of […] cold vasopressin and for compound testing 100 ul of a serial dilution of each compound in 2% DMSO. The plate is incubated 1 h at room temperature, centrifuged 1 min at 1000 g and counted on a Packard Top-Count. Non-specific binding counts are subtracted from each well, and data is normalized to the maximum specific binding set at 100%. To calculate an IC 50 the curve is fitted using a non-linear regression model (XLfit) and the Ki is calculated using the Cheng-Prussoff equation.

[1] = displacement of 4 nM 3H-Vasopressin, HEK293 cell membranes, Ki by Cheng-Prussoff from IC50, read-out: Ki

T1 sequence (P37288 whole entry): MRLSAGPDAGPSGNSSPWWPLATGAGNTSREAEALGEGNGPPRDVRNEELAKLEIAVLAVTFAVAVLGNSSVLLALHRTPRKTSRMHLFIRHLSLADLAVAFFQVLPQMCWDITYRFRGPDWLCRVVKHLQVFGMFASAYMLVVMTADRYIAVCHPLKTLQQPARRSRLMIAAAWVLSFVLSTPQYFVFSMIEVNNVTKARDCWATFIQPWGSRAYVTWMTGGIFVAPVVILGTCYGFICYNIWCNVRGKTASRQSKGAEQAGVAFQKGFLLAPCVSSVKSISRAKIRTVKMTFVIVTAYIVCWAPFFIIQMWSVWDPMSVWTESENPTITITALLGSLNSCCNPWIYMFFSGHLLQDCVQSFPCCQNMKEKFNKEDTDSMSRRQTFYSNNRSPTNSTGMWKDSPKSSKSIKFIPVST

Row | SMILES | pKi [1] | pKi
1 | COc1ccccc1C1=CCN(C(=O)c2c(C)n(Cc3ccccc3)c3ccccc23)CC1 [Example 3] | – | 7.85
2 | Cc1c(C(=O)N2CCC(c3ccccc3)CC2)c2ccccc2n1Cc1ccccc1 [Example 24] | – | 8.00
3 | COc1cccc(OC)c1C1CCN(C(=O)c2c[nH]c3cc(Cl)ccc23)CC1 [Example 40, (6-Chloro-1H-indol-3-yl)-[4-(2,6-dimethoxy-phenyl)-piperidin-1-yl]-methanone] | 8.10 | –
4 | COc1cccc(OC)c1C1CCN(C(=O)c2cn(Cc3ccccn3)c3cc(Cl)ccc23)CC1 [Example 47, (6-Chloro-1-pyridin-2-ylmethyl-1H-indol-3-yl)-[4-(2,6-dimethoxy-phenyl)-piperidin-1-yl]-methanone] | – | 8.40
5 | COc1cccc(OC)c1C1CCN(C(=O)c2cn(Cc3cnccn3)c3cc(Cl)ccc23)CC1 [Example 50] | – | 8.40
6 | COc1cccc(OC)c1C1CCN(C(=O)c2cn(CC(=O)N3CCN(C)CC3)c3cc(Cl)ccc23)CC1 [Example 55, 2-{6-Chloro-3-[4-(2,6-dimethoxy-phenyl)-piperidine-1-carbonyl]-indol-1-yl}-1-(4-methyl-piperazin-1-yl)-ethanone] | 8.70 | –
7 | COc1ccccc1C1CCN(C(=O)c2cn(Cc3cc(F)cc(F)c3)c3cc(Cl)ccc23)CC1 [Example 56, [6-Chloro-1-(3,5-difluoro-benzyl)-1H-indol-3-yl]-[4-(2-methoxy-phenyl)-piperidin-1-yl]-methanone] | – | 8.70
8 | COc1ccccc1C1CCN(C(=O)c2cn(CC(=O)N(C)C)c3cc(Cl)ccc23)CC1 [Example 57, 2-{6-Chloro-3-[4-(2-methoxy-phenyl)-piperidine-1-carbonyl]-indol-1-yl}-N,N-dimethyl-acetamide] | 8.70 | –
9 | COc1ccccc1C1CCN(C(=O)c2cn(CC(=O)N3CCN(C)CC3)c3cc(Cl)ccc23)CC1 [Example 58, 2-{6-Chloro-3-[4-(2-methoxy-phenyl)-piperidine-1-carbonyl]-indol-1-yl}-1-(4-methyl-piperazin-1-yl)-ethanone] | 8.05 | –
10 | COc1ccccc1C1CCN(C(=O)c2cn(CC(=O)OC(C)(C)C)c3cc(Cl)ccc23)CC1 [Example 59, {6-Chloro-3-[4-(2-methoxy-phenyl)-piperidine-1-carbonyl]-indol-1-yl}-acetic acid tert-butyl ester] | 8.70 | –

Continued, in another order:

Row | pKi [1] | SMILES | pKi
11 | 8.70 | COc1cccc(OC)c1C1CCN(C(=O)c2cn(CC(=O)N(C)C)c3cc(Cl)ccc23)CC1 [Example 43, 2-{6-Chloro-3-[4-(2,6-dimethoxy-phenyl)-piperidine-1-carbonyl]-indol-1-yl}-N,N-dimethyl-acetamide] | –
12 | 8.52 | COc1cccc(OC)c1C1CCN(C(=O)c2cn(CC(=O)c3ccccn3)c3cc(Cl)ccc23)CC1 [Example 44, 2-{6-Chloro-3-[4-(2,6-dimethoxy-phenyl)-piperidine-1-carbonyl]-indol-1-yl}-1-pyridin-2-yl-ethanone] | –
13 | 8.15 | COc1cccc(OC)c1C1CCN(C(=O)c2cn(Cc3ccncc3)c3cc(Cl)ccc23)CC1 [Example 45, (6-Chloro-1-pyridin-4-ylmethyl-1H-indol-3-yl)-[4-(2,6-dimethoxy-phenyl)-piperidin-1-yl]-methanone] | –
14 | 8.15 | COc1cccc(OC)c1C1CCN(C(=O)c2cn(Cc3cccnc3)c3cc(Cl)ccc23)CC1 [Example 46, (6-Chloro-1-pyridin-3-ylmethyl-1H-indol-3-yl)-[4-(2,6-dimethoxy-phenyl)-piperidin-1-yl]-methanone] | –
15 | 8.52 | COc1cccc(OC)c1C1CCN(C(=O)c2cn(CC(=O)OC(C)(C)C)c3cc(Cl)ccc23)CC1 [Example 49, {6-Chloro-3-[4-(2,6-dimethoxy-phenyl)-piperidine-1-carbonyl]-indol-1-yl}-acetic acid tert-butyl ester] | –
16 | 8.40 | COc1cccc(OC)c1C1CCN(C(=O)c2cn(CCN(C)C)c3cc(Cl)ccc23)CC1 [Example 52, [6-Chloro-1-(2-dimethylamino-ethyl)-1H-indol-3-yl]-[4-(2,6-dimethoxy-phenyl)-piperidin-1-yl]-methanone] | –
